Consider twelve compounds from ChEMBL document CHEMBL1201862, “PubChem BioAssay data set” (2004).

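Results reflect a 48-hour exposure of cells in 96-well plates to compound at five concentrations. GI50 = concentration required for 50% inhibition of growth.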 The source made the active and inactive calls. No stated cut-off is given here; in the data, active = GI50 up to about 1.1 µM and inactive = higher.

Some test systems named below: A549; ACHN; CCRF-CEM; HCC 2998; HCT-116; HT-29; K562; SF-268; SF-295; SF-539; SNB-19; U-251; UACC-257; UACC-62; UO-31; MCF7; MDA-MB-231; MDA-MB-435; PC-3.
What all share (assay): NCI tumour cell line growth inhibition, 48 h

For the compound `CC(=O)NC1=C(C)C(=O)c2c(nc3n2CCC3O)C1=O` (stereo not drawn), the GI50 was > 64 µM (inactive) with A549; > 100 µM (inactive) in the assay with ACHN; 4.24 µM (inactive) with CCRF-CEM; 54 µM (inactive) in the assay with HCC 2998; 23.7 µM (inactive) with HCT-116; > 100 µM (inactive) in the assay on HT-29. For the same compound, the GI50 in the assay with K562 was 19.1 µM (inactive); with SF-268 it was 34.8 µM (inactive); in the assay with SF-295 it was > 100 µM (inactive); in the assay with SF-539, 24.4 µM (inactive); in the assay with SNB-19 it was > 100 µM (inactive); with U-251, 33.1 µM (inactive). The results for the GI50 with UACC-257, in the assay on UACC-62 and in the assay on UO-31 were 26.3 µM (inactive), 20.1 µM (inactive) and > 100 µM (inactive), respectively.

Regarding `O=P(O)(O)CN1CCNCCN(CP(=O)(O)O)CCNCC1`, the GI50 was 8.22 µM (inactive) with A549; > 100 µM (inactive) in the assay with ACHN; 3.52 µM (inactive) in the assay with CCRF-CEM; 7.64 µM (inactive) in the assay on HCC 2998; 4.39 µM (inactive) in the assay with HCT-116; 3.95 µM (inactive) with HT-29. The GI50 in the assay with K562 is 3.44 µM (inactive); in the assay on MCF7 it was 6.97 µM (inactive); in the assay with MDA-MB-231, > 100 µM (inactive); in the assay on MDA-MB-435, 12 µM (inactive); in the assay on PC-3 it was 24.9 µM (inactive); with SF-268 it was > 100 µM (inactive). Moreover, the GI50 in the assay on SF-295 was > 100 µM (inactive); in the assay with SF-539, 11.7 µM (inactive); with SNB-19, > 100 µM (inactive); with U-251 it was > 24.4 µM (inactive); in the assay with UACC-257, 41.8 µM (inactive); in the assay on UACC-62, 7.74 µM (inactive). Besides, the GI50 with UO-31 is > 100 µM (inactive).

Regarding `C/C(=N\NC(=S)N(C)C)c1ncc[nH]1`, the GI50 in the assay on A549 was 3.38 µM (inactive); in the assay on ACHN, 2.45 µM (inactive); in the assay on CCRF-CEM, 2.82 µM (inactive); in the assay with HCC 2998 it was 3.52 µM (inactive); in the assay on HCT-116, 3.56 µM (inactive); in the assay on HT-29, 5.73 µM (inactive). Also, the GI50 with K562 is 2.59 µM (inactive); in the assay on SF-268, 3.56 µM (inactive); with SF-295, 4.28 µM (inactive); in the assay with SF-539, 2.77 µM (inactive); in the assay with SNB-19 it was 4.42 µM (inactive); in the assay with U-251, 2.23 µM (inactive). In addition, the GI50 is 2.92 µM (inactive) with UACC-257, 2.51 µM (inactive) in the assay with UACC-62 and 2.1 µM (inactive) with UO-31.

As to `Sc1nnc(CNc2ccc(-c3nnc(S)n3-c3ccc(Cl)cc3)cc2)n1-c1ccc(Cl)cc1`, the GI50 was 31.6 µM (inactive) in the assay with A549; 47.5 µM (inactive) with ACHN; 31.2 µM (inactive) in the assay on HCC 2998; 15.2 µM (inactive) with HCT-116; 25.3 µM (inactive) with HT-29; 30.8 µM (inactive) in the assay with K562. In addition, the GI50 in the assay on MCF7 was 40.3 µM (inactive); in the assay with MDA-MB-231, 20.2 µM (inactive); in the assay with MDA-MB-435 it was 28.3 µM (inactive); with PC-3 it was 36 µM (inactive); in the assay with SF-268, 30.3 µM (inactive); in the assay on SF-295 it was 26.9 µM (inactive). In addition, the GI50 with SNB-19 was 26.5 µM (inactive); in the assay on U-251 it was 37.3 µM (inactive); in the assay with UACC-257 it was 41.2 µM (inactive); in the assay with UACC-62 it was 25.2 µM (inactive); in the assay with UO-31 it was 16.4 µM (inactive).

In the case of `COc1cccc(NC(=O)C(C#N)=C(SC)SC)c1`, the GI50 with A549 was > 100 µM (inactive); with ACHN it was > 100 µM (inactive); in the assay with CCRF-CEM it was 34 µM (inactive); with HCC 2998 it was > 100 µM (inactive); in the assay with HCT-116, > 100 µM (inactive); with HT-29 it was > 100 µM (inactive). Also, the GI50 in the assay on K562 was > 100 µM (inactive); in the assay on MCF7, 72.9 µM (inactive); with MDA-MB-231, > 100 µM (inactive); in the assay with MDA-MB-435, > 100 µM (inactive); in the assay with PC-3 it was > 100 µM (inactive); in the assay with SF-268 it was > 100 µM (inactive). Besides, the GI50 was > 100 µM (inactive) in the assay with SF-295; > 100 µM (inactive) with SF-539; 57 µM (inactive) in the assay with SNB-19; > 100 µM (inactive) in the assay on U-251; > 100 µM (inactive) with UACC-257; > 100 µM (inactive) with UACC-62.

For `Cc1cc(S(=O)(=O)O)c(NC(=O)C(=O)C2C=CCS2(=O)=O)cc1Cl` (stereo not drawn), the GI50 in the assay on A549, with ACHN, in the assay with CCRF-CEM, in the assay on HCC 2998, in the assay with HCT-116 and in the assay with HT-29 was > 100 µM (inactive) throughout. Moreover, the GI50 in the assay on K562, in the assay on SF-268, with SF-295, in the assay with SF-539, in the assay with SNB-19 and with U-251 was > 100 µM (inactive) each time. The GI50 in the assay with UACC-257, in the assay on UACC-62 and with UO-31 was > 100 µM (inactive) each time.

Turning to `CN(CC(=O)O)c1ncc2c(n1)-c1ccccc1OC2`, the GI50 in the assay with A549, in the assay with ACHN, in the assay with CCRF-CEM, in the assay with HCT-116, in the assay on HT-29 and in the assay with K562 was > 100 µM (inactive) in each case. Besides, the GI50 with MCF7, with MDA-MB-231, with MDA-MB-435, in the assay with PC-3, in the assay on SF-268 and with SF-295 was > 100 µM (inactive) each time. The GI50 in the assay with SF-539, with SNB-19, with U-251, with UACC-257, with UACC-62 and in the assay with UO-31 was > 100 µM (inactive) throughout.

As for `Cc1ccc(NC(=O)/C(CC2Nc3c(ccc4c3C(=O)c3ccccc3C4=O)NC2O)=N/NC(C)(C)C)cc1` (stereo not drawn), the GI50 is 16.1 µM (inactive) in the assay with A549; 12.4 µM (inactive) in the assay on ACHN; 1.36 µM (inactive) with CCRF-CEM; 22.6 µM (inactive) in the assay on HCC 2998; 12.5 µM (inactive) in the assay with HCT-116; 16.4 µM (inactive) with HT-29. Besides, the GI50 in the assay on MCF7 was 23.7 µM (inactive); with MDA-MB-231, 3.42 µM (inactive); with MDA-MB-435, 17.7 µM (inactive); in the assay on PC-3, 15.8 µM (inactive); in the assay on SF-268, 10.4 µM (inactive); in the assay with SF-295, 27.9 µM (inactive). For the same compound, the GI50 is 7.59 µM (inactive) with SF-539; 28 µM (inactive) in the assay with SNB-19; 14.1 µM (inactive) in the assay on U-251; 16.1 µM (inactive) in the assay with UACC-257; 11.9 µM (inactive) in the assay with UACC-62; 3.7 µM (inactive) with UO-31.

For `COc1ccc(CNc2nc(NCc3ccc(OC)cc3)nc(NC3CCCC3)n2)cc1`, the GI50 is 5.26 µM (inactive) in the assay with A549; 4.47 µM (inactive) with ACHN; 2.24 µM (inactive) in the assay with CCRF-CEM; 2.64 µM (inactive) in the assay with HCT-116; 3.04 µM (inactive) in the assay on HT-29; 2.99 µM (inactive) in the assay on K562. The GI50 in the assay with MCF7 was 3.31 µM (inactive); in the assay on MDA-MB-231, 3.54 µM (inactive); with MDA-MB-435 it was 1.48 µM (inactive); in the assay with PC-3 it was 2.84 µM (inactive); with SF-268, 7.18 µM (inactive); in the assay on SF-295 it was 2.18 µM (inactive). For the same compound, the GI50 in the assay on SF-539 was 2.75 µM (inactive); in the assay with SNB-19 it was 6.28 µM (inactive); with U-251, 4.5 µM (inactive); in the assay with UACC-257, 12 µM (inactive); in the assay on UO-31 it was 6.43 µM (inactive).

Regarding `[O-][N+]1=[N+]([O-])[C@@H](c2ccccc2)[C@H]1c1ccccc1`, the GI50 in the assay on A549 is 19.5 µM (inactive); in the assay with ACHN, 17.6 µM (inactive); in the assay on CCRF-CEM, 3.3 µM (inactive); in the assay on HCT-116, 16.6 µM (inactive); in the assay with HT-29 it was 18.3 µM (inactive); with K562, 3.52 µM (inactive). Also, the GI50 in the assay on MCF7 is 15.7 µM (inactive); with MDA-MB-231 it was 20.2 µM (inactive); with MDA-MB-435, 18.7 µM (inactive); in the assay with PC-3, 17.5 µM (inactive); in the assay with SF-268, 24.9 µM (inactive); with SF-295, 19.9 µM (inactive). The GI50 with SF-539 is 18.4 µM (inactive); in the assay with SNB-19, 18.4 µM (inactive); in the assay on U-251, 18.6 µM (inactive); with UACC-257, 13.1 µM (inactive); in the assay with UACC-62, 17.5 µM (inactive); in the assay with UO-31 it was 14.8 µM (inactive).

For the compound `COc1cc2c(cc1OCCCN1CCN(C)CC1)N=C[C@@H]1CCCN1C2=O`, the GI50 in the assay on A549 was 2.37 µM (inactive); in the assay on ACHN, 2.17 µM (inactive); with CCRF-CEM it was 0.485 µM (active); in the assay with HCT-116 it was 2.7 µM (inactive); in the assay with HT-29, 1.74 µM (inactive); with K562, 0.679 µM (active). Also, the GI50 is 1.22 µM (inactive) in the assay with MCF7; 2.18 µM (inactive) in the assay on MDA-MB-231; 1.9 µM (inactive) in the assay on MDA-MB-435; 2.67 µM (inactive) in the assay with PC-3; 3.03 µM (inactive) in the assay on SF-268; 2 µM (inactive) with SF-295. The GI50 is 2.19 µM (inactive) in the assay on SF-539; 4.06 µM (inactive) in the assay with SNB-19; 0.935 µM (active) with U-251; 2.5 µM (inactive) in the assay on UACC-257; 1.78 µM (inactive) with UACC-62; 2.14 µM (inactive) in the assay with UO-31.

For the compound `CCn1cc(C(=O)O)c(=O)c2cc(F)c(N3CCNCC3)nc21` [ENOXACIN], the GI50 with A549 is > 100 µM (inactive); with ACHN, > 100 µM (inactive); with CCRF-CEM, > 100 µM (inactive); in the assay with HCC 2998 it was > 100 µM (inactive); with HCT-116, 65.6 µM (inactive); with HT-29, > 100 µM (inactive). The GI50 is 63.5 µM (inactive) in the assay on K562; > 100 µM (inactive) in the assay with SF-268; > 100 µM (inactive) in the assay with SF-295; > 100 µM (inactive) in the assay on SF-539; > 100 µM (inactive) in the assay on SNB-19; 66.7 µM (inactive) with U-251. For the same compound, the GI50 in the assay on UACC-257, in the assay on UACC-62 and in the assay with UO-31 was > 100 µM (inactive) each time.
